Assay results: patent US9675647B2, “Prophylactic and/or therapeutic agent for functional gastrointestinal disorders” (MEIJI CO., LTD., priority 2007, dated 2017)

Tested on: distal colon longitudinal muscle (colon specimen)
Assay: Magnus method, effects of sodium propionate and sodium acetate (Example 5)
Parameters: species or system rat
Conditions: for effect on contractile force (in words) / effect on contraction frequency (in words): Example 5, 10, 30, 100 μL of 0.1 M solution
From the text: Seven-week-old SD type male rats were reared and habituated for one week, then sacrificed to excise the colon. Then, about 1 cm of the longitudinal muscle of the colon was isolated from the distal colon (a portion at about 2 to 3 cm to the appendix side from the anus), and cut into two pieces in the longitudinal layer direction (hereinafter, this is also referred to as colon specimen). Each colon specimen was hung with resting tension of 1 g in a Magnus tube filled with Krebs buffer under the condition described below, and a mixed gas of 95% oxygen and 5% carbon dioxide was passed thereto. Then, the colon specimens were equilibrated for about one hour while changing the Krebs buffer every 15 minutes.
Distilled water was added to 6.92 g of NaCl, 0.35 g of KCl, 0.29 g of MgSO4.7H2O, 0.16 g of KH2PO4, 2.1 g of glucose, 0.28 g of CaCl2, and 2.1 g of NaHCO3 to obtain 1 L. • Temperature of Krebs buffer in the Magnus tube: 32° C. • Volume of Krebs buffer introduced into the Magnus tube: 10 mL. Preparation of Test Substances
These were used as test substance aqueous solutions in the assessment test described below. Meanwhile, distilled water was used as control.
The measurement of tension and observation of muscle conditions were carried out for 15 minutes. Tension measurement charts were recorded using a recorder adjusted such that a 5 cm displacement occurs per tension of 1 g on the measurement charts. The resulting measurement charts were used to observe peaks of tension associated with muscle contraction. The contraction frequency (times/minute) was calculated from the number of peaks (times) that appeared per unit time (minute), the contractile force (g) was calculated from the peak height (cm), and numerical values were used for evaluation. With the obtained results, comparisons between the groups were further assessed for significant differences by the Student's t-test.

[1] = 10 μL of 0.1 mol/L aqueous solution added to 10 mL Krebs buffer
[2] = 30 μL of 0.1 mol/L aqueous solution added to 10 mL Krebs buffer
[3] = 100 μL of 0.1 mol/L aqueous solution added to 10 mL Krebs buffer

For `CC(=O)[O-].[Na+]` [SODIUM ACETATE, sodium acetate], the “effect on contractile force (in words)” value was “neither a contractile force-increasing effect nor a contractile force-suppressing effect” and the “effect on contraction frequency (in words)” value was “neither a contraction frequency-enhancing effect nor a contraction frequency-suppressing effect”.
`CCC(=O)[O-].[Na+]` [SODIUM PROPIONATE, sodium propionate] was tested, and the “CONTRACTILE FORCE” value [1] was 1.15 ± 0.72 g, the “CONTRACTION FREQUENCY” value [1] was 0.47 ± 0.14 TIMES/MINUTE and the “CONTRACTILE FORCE” value [2] was 1.24 ± 0.77 g. For the same molecule, the “CONTRACTION FREQUENCY” value [2] was 0.73 ± 0.19 TIMES/MINUTE, the “CONTRACTILE FORCE” value [3] was 1.20 ± 0.68 g and the “CONTRACTION FREQUENCY” value [3] was 0.73 ± 0.38 TIMES/MINUTE. For the same molecule, the “effect on contractile force (in words)” value was “neither a contractile force-increasing effect nor a contractile force-suppressing effect” and the “effect on contraction frequency (in words)” value was “neither a contraction frequency-enhancing effect nor a contraction frequency-suppressing effect”.
